Data set [1] in a line: Cytotoxicity against human WI38 cells by MTT assay. The format is cell-based, WI-38. Conditions: Homo sapiens, WI-38; read-out: IC50. In general terms: Tetrazolium assays rely on reduction of a dye to a coloured formazan, in cell work by metabolically active cells.
Data set [2] relates to Trypanosoma brucei brucei. Description: Potency index, ratio of IC50 for CN to IC50 for test compound against Trypanosoma brucei brucei Lister 427 bloodstream forms by microtiter plate based assay. The format is functional.
The subject of data set [3] is Plasmodium falciparum. Nature of the data set: Antiplasmodial activity against Plasmodium falciparum 3D7 assessed as reduction in parasite viability by parasite lactate dehydrogenase assay. The format is functional, organism-based.
The nature of data set [4]: in vitro. To be noted: human, WI38 cells.
Description: Selectivity index, ratio of IC50 against human WI38 cells to IC50 for Trypanosoma brucei brucei Lister 427 bloodstream forms
The subject of data set [5] is Plasmodium falciparum. Description: Potency index, ratio of IC50 for CN to IC50 for test compound against Plasmodium falciparum 3D7 by parasite lactate dehydrogenase assay. The format is functional.
For data set [6], the system named is Trypanosoma brucei brucei. Nature of the data set: Antitrypanosomal activity against Trypanosoma brucei brucei Lister 427 bloodstream forms by microtiter plate based assay. Format: functional, organism-based.
Data set [7] in a line: Selectivity index, ratio of IC50 against human WI38 cells to IC50 for Plasmodium falciparum 3D7. The format is toxicity, cell-based, WI-38. Conditions: read-out: Ratio IC50.
In data set [8] the test system is Trypanosoma brucei brucei. Nature of the data set: Potency index, ratio of IC50 for CND to IC50 for test compound against Trypanosoma brucei brucei Lister 427 bloodstream forms by microtiter plate based assay. The format is functional.
Data set [9] deals with Plasmodium falciparum. Description: Potency index, ratio of IC50 for CND to IC50 for test compound against Plasmodium falciparum 3D7 by parasite lactate dehydrogenase assay. The format is functional.

As a reminder, the IC50 is the midpoint of a concentration-inhibition curve. For `C=C[C@H]1CN2CC[C@H]1C[C@@H]2[C@@H](O)c1cc(CC[C@@H](C)[C@H]2CC[C@H]3[C@@H]4C[C@H](OC(C)=O)[C@@H]5C[C@H](OC(C)=O)CC[C@]5(C)[C@H]4CC[C@]23C)nc2ccccc12`, the IC50 was found to be 4280 nM in [1], 186 nM in data set [3] and 640 nM in data set [6]. For the same compound, the “Ratio IC50” value is listed as 105.7 in data set [2] and 1.6 in [5]. Also, the selectivity ratio in data set [4] was 6.6; in data set [7], 23.

Consider `C=C[C@H]1CN2CC[C@H]1C[C@@H]2[C@@H](O)c1cc(CC[C@@H](C)[C@H]2CC[C@H]3[C@@H]4[C@H](OC(C)=O)[C@H](OC(C)=O)[C@@H]5C[C@H](OC(C)=O)CC[C@]5(C)[C@H]4CC[C@]23C)nc2ccccc12`, for which the IC50 in data set [1] is 4170 nM; in data set [3], 40.8 nM; in [6] it was 510 nM. Further, the “Ratio IC50” value is recorded as 134.6 in data set [2] and 7.2 in data set [5]. In addition, the figures for the selectivity ratio in [4] and in data set [7] were 8.3 and 102, respectively.

Turning to `C=C[C@H]1CN2CC[C@H]1C[C@@H]2[C@@H](O)c1cc(CC[C@@H](C)[C@H]2CC[C@H]3[C@@H]4CC[C@@H]5C[C@H](OC(C)=O)CC[C@]5(C)[C@H]4C[C@H](OC(C)=O)[C@]23C)nc2ccccc12`, the IC50 in [1] came out at 4800 nM; in [3] it was 171 nM; in data set [6], 1510 nM. The “Ratio IC50” value is listed as 45.1 in data set [2] and 1.7 in data set [5]. For the same compound, the values for the selectivity ratio in [4] and in data set [7] were 3.2 and 28.1, respectively.

Take `C=C[C@H]1CN2CC[C@H]1C[C@@H]2[C@@H](O)c1cc(CC[C@@H](C)[C@H]2CC[C@H]3[C@@H]4[C@H](OC(C)=O)C[C@@H]5C[C@H](OC(C)=O)CC[C@]5(C)[C@H]4C[C@H](OC(C)=O)[C@]23C)nc2ccccc12`: the IC50 in [1] was found to be 5100 nM; in [3], 52.8 nM; in [6], 550 nM. For the same compound, the “Ratio IC50” value in data set [2] turned out to be 123.6; in data set [5], 5.5. In addition, the selectivity ratio in data set [4] came to 9.3; in [7], 97.

For `C=C[C@H]1CN2CC[C@H]1C[C@@H]2[C@@H](O)c1cc(CC[C@@H](C)[C@H]2CC[C@H]3[C@@H]4C[C@H](O)[C@@H]5C[C@H](O)CC[C@]5(C)[C@H]4CC[C@]23C)nc2ccccc12`, the half-maximal inhibitory concentration (IC50) was 5490 nM in [1], 71.6 nM in data set [3] and 720 nM in data set [6]. The “Ratio IC50” value in data set [2] is listed as 94.5; in data set [5] it was 4.1. Also, the values for the selectivity ratio in [4] and in data set [7] were 7.6 and 77, respectively.

In the case of `C=C[C@H]1CN2CC[C@H]1C[C@H]2[C@H](O)c1cc(CC[C@@H](C)[C@H]2CC[C@H]3[C@@H]4C[C@H](OC(C)=O)[C@@H]5C[C@H](OC(C)=O)CC[C@]5(C)[C@H]4CC[C@]23C)nc2ccccc12`, the IC50 stood at 4160 nM in data set [1], 115 nM in [3] and 1180 nM in data set [6]. Moreover, the entries for the “Ratio IC50” value in [8] and in data set [9] were 52.5 and 8.3, respectively. Besides, the selectivity ratio in data set [4] turned out to be 3.5; in [7] it was 36.

As for `C=C[C@H]1CN2CC[C@H]1C[C@H]2[C@H](O)c1cc(CC[C@@H](C)[C@H]2CC[C@H]3[C@@H]4[C@H](OC(C)=O)[C@H](OC(C)=O)[C@@H]5C[C@H](OC(C)=O)CC[C@]5(C)[C@H]4CC[C@]23C)nc2ccccc12`, the half-maximal inhibitory concentration (IC50) in data set [1] was determined as 3750 nM; in [3], 36.1 nM; in data set [6] it was 520 nM. Besides, the “Ratio IC50” value in data set [8] is reported as 119.8; in [9], 26.6. The selectivity ratio in data set [4] turned out to be 7.2; in data set [7], 104.

Take `C=C[C@H]1CN2CC[C@H]1C[C@H]2[C@H](O)c1cc(CC[C@@H](C)[C@H]2CC[C@H]3[C@@H]4CC[C@@H]5C[C@H](OC(C)=O)CC[C@]5(C)[C@H]4C[C@H](OC(C)=O)[C@]23C)nc2ccccc12`: the IC50 in [1] turned out to be 4060 nM; in data set [3], 77.2 nM; in [6] it was 570 nM. Moreover, the “Ratio IC50” value in data set [8] came out at 108.2; in data set [9] it was 12.5. The results for the selectivity ratio in data set [4] and in data set [7] were 7.1 and 53, respectively.

Consider `C=C[C@H]1CN2CC[C@H]1C[C@H]2[C@H](O)c1cc(CC[C@@H](C)[C@H]2CC[C@H]3[C@@H]4[C@H](OC(C)=O)C[C@@H]5C[C@H](OC(C)=O)CC[C@]5(C)[C@H]4C[C@H](OC(C)=O)[C@]23C)nc2ccccc12`, for which the half-inhibitory concentration (IC50) in data set [1] was 6700 nM; in data set [3] it was 40.6 nM; in data set [6], 1470 nM. Also, the “Ratio IC50” value in data set [8] is given as 42.4; in [9], 23.7. In addition, the selectivity ratio turned out to be 4.6 in data set [4] and 165 in data set [7].

As to `C=C[C@H]1CN2CC[C@H]1C[C@H]2[C@H](O)c1cc(CC[C@@H](C)[C@H]2CC[C@H]3[C@@H]4C[C@H](O)[C@@H]5C[C@H](O)CC[C@]5(C)[C@H]4CC[C@]23C)nc2ccccc12`, the concentration for half-maximal inhibition (IC50) in data set [1] came to 3280 nM; in data set [3], 92.1 nM; in [6], 530 nM. Further, the “Ratio IC50” value in [8] turned out to be 116.7; in data set [9], 10.5. The selectivity ratio in [4] was determined as 6.2; in data set [7], 36.

Consider `C=C[C@H]1CN2CC[C@H]1C[C@H]2[C@H](O)c1cc(CC[C@@H](C)[C@H]2CC[C@H]3[C@@H]4[C@H](O)[C@H](O)[C@@H]5C[C@H](O)CC[C@]5(C)[C@H]4CC[C@]23C)nc2ccccc12`, for which the IC50 came out at 5320 nM in data set [1], 392 nM in [3] and 620 nM in data set [6]. For the same compound, the “Ratio IC50” value was determined as 100.5 in [8] and 2.5 in data set [9]. For the same compound, the figures for the selectivity ratio in data set [4] and in data set [7] were 8.6 and 14, respectively.

As for `C=C[C@H]1CN2CC[C@H]1C[C@H]2[C@H](O)c1cc(CC[C@@H](C)[C@H]2CC[C@H]3[C@@H]4CC[C@@H]5C[C@H](O)CC[C@]5(C)[C@H]4C[C@H](O)[C@]23C)nc2ccccc12`, the IC50 was 5640 nM in data set [1], 320 nM in data set [3] and 660 nM in data set [6]. In addition, the entries for the “Ratio IC50” value in data set [8] and in data set [9] were 94.8 and 3, respectively. The values for the selectivity ratio in data set [4] and in data set [7] were 8.6 and 18, respectively.

For `C=C[C@H]1CN2CC[C@H]1C[C@H]2[C@H](O)c1cc(CC[C@@H](C)[C@H]2CC[C@H]3[C@@H]4[C@H](O)C[C@@H]5C[C@H](O)CC[C@]5(C)[C@H]4C[C@H](O)[C@]23C)nc2ccccc12`, the values for the IC50 in data set [1], in [3] and in data set [6] were 8090 nM, 1800 nM and 1750 nM, respectively. Further, the “Ratio IC50” value in data set [8] came out at 35.6; in data set [9], 0.5. In addition, the selectivity ratio in data set [4] was determined as 4.6; in data set [7], 4.

The values above are taken from ChEMBL document CHEMBL3588788, “Structure-activity relationship of hybrids of Cinchona alkaloids and bile acids with in vitro antiplasmodial and antitrypanosomal activities” (Eur J Med Chem, 2015).
